Experimental findings from US10982174B2, “Synergistic surfactant blends” (STEPAN COMPANY, priority 2012, dated 2021) are described below.

SMILES strings stand for the structures.

Holding throughout (format): physicochemical
The nature of data set [1]: Critical micelle concentration (CMC) and beta parameter (synergy). Here is the method: Synergy can also be evaluated with respect to a blend's beta parameter (β), which can be calculated from the measured critical micelle concentration. Suitable methods for calculating β have been described previously (see, e.g., U.S. Pat. No. 5,360,571, the teachings of which are incorporated herein by reference).
Conveniently, the critical micelle concentration of a blend is measured at dilute concentrations in deionized water with pH adjusted to be within the range of 6 to 7. Critical micelle concentration generally refers to the minimum concentration of surfactant (in mg/L) needed to support micelle formation. The measurement can be performed, for instance, using a Krüss K12 tensiometer at 25° C. Once the critical micelle concentration is measured, the value of β can be found from:
where X is the total mole fraction of Surfactant 1 in the mixed micelles; α is the mole fraction of Surfactant 1 in solution; C1, C2, and C12 are the critical micelle concentrations of Surfactant 1, Surfactant 2, and their mixture; and β is the interaction parameter.
A negative value of β indicates synergy, while a positive value of β indicates antagonism, and values close to zero indicate little or no synergy.
The critical micelle concentration (CMC) of a blend is measured at a diluted concentration in deionized water with pH adjusted to 6-7. The measurement is done at 25° C. using a Kruss K100 tensiometer. The synergy of the blends, indicated by the beta parameter, is calculated based on the CMC data using the equation, β=[In(αA12/XA1)]/(1−X)^2 in which α is the mole fraction of the anionic surfactant in solution, X is the mole fraction of the anionic surfactant in mixed micelles, A1 is the critical micelle concentration of the anionic surfactant, and A12 is the critical micelle concentration of the blend.

Data set [2] in a line: Appearance / solubility of surfactant blends, neat and diluted with deionized water. To be noted: SLS/Quat (molar) 0:1. The procedure:
All of the surfactant blends tested are prepared at the designated molar ratios without any pH adjustment. Dilutions are made using deionized water to the desired actives level. Actives amounts are wt. % unless indicated otherwise. Appearances are reported at ambient temperature for samples prepared within the last 24 h.

A short description of data set [3]: Interfacial tension (IFT), pendant drop tensiometer, against light mineral oil. To be noted: individual surfactant, ambient temperature, in mN/m (unit assumed). Here is the method:
Interfacial tension is measured by any suitable method. […] The expected IFT value for a blend is calculated based on ideal mixing (non-synergistic) using the active component in each blend. The equation used is: Expected IFT=X·IFTA+(1−X)·IFTB where X is the actives % of Component A, IFTA is the IFT of Component A, and IFTB is the IFT of Component B.
If the measured IFT for a blend is less than the expected IFT, the blend is synergistic; if the measured IFT for a blend is greater than the expected IFT, the blend is antagonistic.
Interfacial tension (IFT) of all the individual components and their blends is measured at a given % active against light mineral oil at ambient temperature using a Kruss DSA-20 pendent drop tensiometer.

Where [4] appears, read: deionized water, pH 6-7, 25° C.

In the case of `C=CCCCCCCCC(=O)OCC[N+](C)(C)C` [C10-7, C10 DMEA Ester Quat], the “Surface tension at CMC (mN/m)” value in data set [1] stood at 41.1 mN/m. In data set [1] (setting [4]), the “CMC (mg/L)” value was 342.6 mg/L and the “CMC (mol/L)” value was determined as 0.000932 mol/L.

Turning to `C=CCCCCCCCC(=O)NCCC[N+](C)(C)C` [C10-18, C10 DMAPA Quat], in data set [2], the “Appearance 0.01% actives” value is on record as “clear”, the “Appearance 0.2% actives” value is listed as “clear” and the Appearance concentrate result was “solid”.

For `C=CCCCCCCCC(=O)OC(CCCCCCCC(=O)[O-])CS(=O)(=O)[O-].[Na+].[Na+]` (centres unmarked) [C10-32, C10 UFA SLA], the “IFT (0.1% actives)” value in data set [3] is recorded as 25.9.

Take `C=CCCCCCCCC[N+](C)(C)C` [C10-42, C10 Amine DMS Quat]: in data set [3], the “IFT (0.1% actives)” value turned out to be 42.0.

On to `CC/C=C/CCCCCCCC(=O)NCCC[N+](C)(C)C` [C12-18], for which, in data set [2], the “Appearance 0.01% actives” value is “clear”, the “Appearance 0.2% actives” value is on record as “clear” and the Appearance concentrate result is “solid”.
